Measurements: PubChem BioAssay AID1963831 (Molecular Pharmacology Branch, DTP, NCI, 2024)

System: 889142-216-R-J1-PDC complex spheroid viability
Experiment: Anticancer human tumor 889142-216-R-J1-PDC patient-derived bladder carcinoma cell line growth inhibition [POLQ]
Details: for IC50: curve of first compound; for viability, T/C: stronger effect = lower value
Outline: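 Three-cell-type spheroids modelling solid tumor plus stroma served as the readout system; POL inhibitors were tested individually and in combination, concentration ranges set by clinical Cmax where known.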

[1] = second compound 0.0316 µM, first compound 0.0316 µM
[2] = second compound 0.0316 µM, first compound 0.1 µM
[3] = second compound 0.0316 µM, first compound 0.316 µM
[4] = second compound 0.0316 µM, first compound 1 µM
[5] = second compound 0.1 µM, first compound 0.0316 µM
[6] = second compound 0.1 µM, first compound 0.1 µM
[7] = second compound 0.1 µM, first compound 0.316 µM
[8] = second compound 0.1 µM, first compound 1 µM
[9] = second compound 0.316 µM, first compound 0.0316 µM
[10] = second compound 0.316 µM, first compound 0.1 µM
[11] = second compound 0.316 µM, first compound 0.316 µM
[12] = second compound 0.316 µM, first compound 1 µM
[13] = second compound 1 µM, first compound 0.0316 µM
[14] = second compound 1 µM, first compound 0.1 µM
[15] = second compound 1 µM, first compound 0.316 µM
[16] = second compound 1 µM, first compound 1 µM
[17] = second compound 3.16 µM, first compound 0.0316 µM
[18] = second compound 3.16 µM, first compound 0.1 µM
[19] = second compound 3.16 µM, first compound 0.316 µM
[20] = second compound 3.16 µM, first compound 1 µM
[21] = second compound 10 µM, first compound 0.0316 µM
[22] = second compound 10 µM, first compound 0.1 µM
[23] = second compound 10 µM, first compound 0.316 µM
[24] = second compound 10 µM, first compound 1 µM
[25] = second compound 0.0316 µM, first compound 3.16 µM
[26] = second compound 0.0316 µM, first compound 10 µM
[27] = second compound 0.1 µM, first compound 3.16 µM
[28] = second compound 0.1 µM, first compound 10 µM
[29] = second compound 0.316 µM, first compound 3.16 µM
[30] = second compound 0.316 µM, first compound 10 µM
[31] = second compound 1 µM, first compound 3.16 µM
[32] = second compound 1 µM, first compound 10 µM
[33] = second compound 3.16 µM, first compound 3.16 µM
[34] = second compound 3.16 µM, first compound 10 µM
[35] = second compound 10 µM, first compound 3.16 µM
[36] = second compound 10 µM, first compound 10 µM
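Also: spheroids exposed to compounds for seven days.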
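For viability, T/C in this document: 100% = DMSO vehicle control viability.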

SMILES: C=CCn1c(=O)c2cnc(Nc3ccc(N4CCN(C)CC4)cc3)nc2n1-c1cccc(C(C)(C)O)n1 + COC1C(OC(N)=O)C(O)C(Oc2ccc3c(O)c(NC(=O)c4ccc(O)c(CC=C(C)C)c4)c(=O)oc3c2C)OC1(C)C
- IC50 (second compound 0.0316 µM): > 1 µM
- IC50 (second compound 0.1 µM): > 1 µM
- IC50 (second compound 0.316 µM): > 1 µM
- IC50 (second compound 1 µM): > 1 µM
- IC50 (second compound 3.16 µM): > 1 µM
- IC50 (second compound 10 µM): > 1 µM
- viability, T/C (second compound 0.0316 µM, first compound 0.00316 µM): 97.1%
- viability, T/C (second compound 0.0316 µM, first compound 0.01 µM): 152%
- viability, T/C [1]: 86.6%
- viability, T/C [2]: 83.1%
- viability, T/C [3]: 66.1%
- viability, T/C [4]: 52%
- viability, T/C (second compound 0.1 µM, first compound 0.00316 µM): 98.3%
- viability, T/C (second compound 0.1 µM, first compound 0.01 µM): 111%
- viability, T/C [5]: 108%
- viability, T/C [6]: 81.2%
- viability, T/C [7]: 60.9%
- viability, T/C [8]: 57.5%
- viability, T/C (second compound 0.316 µM, first compound 0.00316 µM): 100%
- viability, T/C (second compound 0.316 µM, first compound 0.01 µM): 125%
- viability, T/C [9]: 103%
- viability, T/C [10]: 86.4%
- viability, T/C [11]: 63.6%
- viability, T/C [12]: 54.7%
- viability, T/C (second compound 1 µM, first compound 0.00316 µM): 112%
- viability, T/C (second compound 1 µM, first compound 0.01 µM): 110%
- viability, T/C [13]: 113%
- viability, T/C [14]: 89.5%
- viability, T/C [15]: 68.6%
- viability, T/C [16]: 57%
- viability, T/C (second compound 3.16 µM, first compound 0.00316 µM): 90.2%
- viability, T/C (second compound 3.16 µM, first compound 0.01 µM): 99.6%
- viability, T/C [17]: 85.4%
- viability, T/C [18]: 108%
- viability, T/C [19]: 64.5%
- viability, T/C [20]: 50.2%
- viability, T/C (second compound 10 µM, first compound 0.00316 µM): 127%
- viability, T/C (second compound 10 µM, first compound 0.01 µM): 116%
- viability, T/C [21]: 97.8%
- viability, T/C [22]: 85.9%
- viability, T/C [23]: 62.5%
- viability, T/C [24]: 51.8%

SMILES: O=C(Nc1ccc(O)c(NS(=O)(=O)c2ccc(F)cc2)c1)c1ccc(-c2ccccc2)cc1 + Nc1ccc(C#CCN(C(=O)Cc2ncc(C(F)(F)F)cc2C(F)(F)F)c2ccc(F)cc2)nn1
- IC50 (second compound 0.0316 µM): > 10 µM
- IC50 (second compound 0.1 µM): > 10 µM
- IC50 (second compound 0.316 µM): > 10 µM
- IC50 (second compound 1 µM): > 10 µM
- IC50 (second compound 3.16 µM): > 10 µM
- IC50 (second compound 10 µM): > 10 µM
- viability, T/C [1]: 118%
- viability, T/C [2]: 101%
- viability, T/C [3]: 83.9%
- viability, T/C [4]: 110%
- viability, T/C [25]: 127%
- viability, T/C [26]: 72%
- viability, T/C [5]: 104%
- viability, T/C [6]: 90.7%
- viability, T/C [7]: 94.1%
- viability, T/C [8]: 126%
- viability, T/C [27]: 129%
- viability, T/C [28]: 87.3%
- viability, T/C [9]: 96.2%
- viability, T/C [10]: 82.1%
- viability, T/C [11]: 110%
- viability, T/C [12]: 105%
- viability, T/C [29]: 134%
- viability, T/C [30]: 73%
- viability, T/C [13]: 117%
- viability, T/C [14]: 84.7%
- viability, T/C [15]: 97.7%
- viability, T/C [16]: 148%
- viability, T/C [31]: 119%
- viability, T/C [32]: 78.4%
- viability, T/C [17]: 105%
- viability, T/C [18]: 83.4%
- viability, T/C [19]: 135%
- viability, T/C [20]: 139%
- viability, T/C [33]: 127%
- viability, T/C [34]: 64.1%
- viability, T/C [21]: 110%
- viability, T/C [22]: 88%
- viability, T/C [23]: 118%
- viability, T/C [24]: 113%
- viability, T/C [35]: 101%
- viability, T/C [36]: 81%

SMILES: COc1ccc([C@@H](O)c2cc(-c3ncnc4cc(N5CCOCC5)ccc34)c(F)cc2Cl)nn1 + Cc1cccc(N(C)C(=O)C2C(O)CCN2c2nc(C)cc(C(F)(F)F)c2C#N)c1
- IC50 (second compound 0.0316 µM): 3.76 µM
- IC50 (second compound 0.1 µM): 2.71 µM
- IC50 (second compound 0.316 µM): 2.26 µM
- IC50 (second compound 1 µM): 2.85 µM
- IC50 (second compound 3.16 µM): 3.89 µM
- IC50 (second compound 10 µM): 1.85 µM
- viability, T/C [1]: 123%
- viability, T/C [2]: 81.2%
- viability, T/C [3]: 102%
- viability, T/C [4]: 69.6%
- viability, T/C [25]: 47.6%
- viability, T/C [26]: 36.8%
- viability, T/C [5]: 99.5%
- viability, T/C [6]: 98.8%
- viability, T/C [7]: 97.7%
- viability, T/C [8]: 67.1%
- viability, T/C [27]: 51.1%
- viability, T/C [28]: 40.9%
- viability, T/C [9]: 106%
- viability, T/C [10]: 103%
- viability, T/C [11]: 90.3%
- viability, T/C [12]: 59.6%
- viability, T/C [29]: 49.7%
- viability, T/C [30]: 35.5%
- viability, T/C [13]: 103%
- viability, T/C [14]: 112%
- viability, T/C [15]: 90.3%
- viability, T/C [16]: 66.7%
- viability, T/C [31]: 52.5%
- viability, T/C [32]: 35.9%
- viability, T/C [17]: 94.8%
- viability, T/C [18]: 79.8%
- viability, T/C [19]: 64.4%
- viability, T/C [20]: 70%
- viability, T/C [33]: 58.6%
- viability, T/C [34]: 35.2%
- viability, T/C [21]: 91.2%
- viability, T/C [22]: 80.5%
- viability, T/C [23]: 63.6%
- viability, T/C [24]: 53.6%
- viability, T/C [35]: 53.6%
- viability, T/C [36]: 28.9%
